“Also recorded” adds a separate entry of the source.

Data set [1] has as its system wildtype NRF2 gene in the H1703 cell line. The data set can be described thus: TIDE indel efficiency of R34G sgRNA at various lengths in H1703 parental cells. Format: cell-based, human. The conditions noted are these: for total indel efficiency: 250 pmol sgRNA to 50 pmol Cas9, 72 hours. The procedure: H1703 parental cells were cultured 48 hours prior to transfections and about 60-80% confluent on the day of transfection. 10^6 cells per 100 ul was used per transfection and each condition was run in duplicate.
Each CRISPR/Cas9 RNP was complexed at a 5:1 ratio of sgRNA to Cas9. 250 pmol of sgRNA was complexed at room temperature with 50 pmol of Cas9, in duplicate. The RNP complex was then transfected into H1703 parental cells using nucleofection (Lonza) with the SF Nucleofection Kit. Transfected cells were plated and allowed to recover for 72 hours. After the 72 hours, each sample of cells was collected by trypsinization and pelleted for further analysis. Cell pellets were used for genomic DNA isolation, PCR and Sanger sequencing.
It has been reported that gRNA length can affect target specificity (Fu et al., Nat. Biotechnol. 32:279-84 (2014)). The efficiency of indel formation of the various length R34G sgRNAs to the wildtype “on-target” site was evaluated. sgRNAs for each length were synthetized and complexed with purified Cas9. Replicate experiments were carried out with H1703 lung squamous cells that were transfected with each RNP, recovered for 72 hours, then analyzed for indel formation. No R34G site is present in the wildtype NRF2 gene in the H1703 cell line, therefore only minimal or background gene editing activity is expected.

Data set [2] has as its system NRF2 locus (exon 4) in A549 cells. The data set is described as follows: TIDE indel analysis of bulk sorted eGFP+ A549 cells transfected with pX458 gRNA1 or gRNA2. The conditions noted are these: bulk sorted eGFP+ A549 population, pX458 plasmid. Format: cell-based, human. As for the experimental part: A549 cells were transfected at a concentration of 5×10^5 cells/100 μl in 4 mm gap cuvette (BioExpress, Kaysville, Utah, USA). NRF2 targeting pX458 constructs were separately electroporated (250 V, LV, 13 ms pulse length, 2 pulses, 1 s interval) into A549 cells using a Bio-Rad Gene Pulser XCell Electroporation System (Bio-Rad Laboratories, Hercules, Calif., USA). Cells were then recovered in 6-well plates with complete growth media at 37° C. for 72 hours prior to sorting. […] Clones were expanded and transferred to larger plates as the individual clones reached confluence, with DNA isolation occurring when cells reached confluence in a six-well plate (1×10^6 cells/mL). […]
FIG. 1B illustrates the functional domains of the NRF2 protein including the KEAP1 Binding Domain, Transactivation Domain, Repressor Binding Domain, β-TrCP Binding Domain, DNA Binding Domain and the Transcriptional Activation Domain. […] To evaluate the efficiency of CRISPR-directed NRF2 knockout in the total targeted population, eGFP+ cells were isolated as a population, and the degree of genetic disruption at the NRF2 locus in cells, transfected with either gRNA1 or gRNA2 pX458, was determined. The sorted populations were Sanger-sequenced and the resulting trace files were analyzed for the presence of indels, a marker for gene disruption. […]

For data set [3], the system named is NRF2 knockout A549 cells (2-11). The data set can be described thus: MTS cell proliferation assay, NRF2 knockout A549 cells (2-11). In kind it is cell-based, human. Particulars: 2-11 knockout A549, increasing dosages, 72 hours; listed as Carboplatin. As for the experimental part:
Cell viability was evaluated using the CellTiter 96 Aqueous Non-Radioactive Cell Proliferation Assay (Promega, Madison, Wis.). A549 cell lines were plated at 2×10^3 cells per well and allowed to culture for 24 hours. The cell media was then aspirated, the cells washed with PBS, then exposed to the MTS reagent for 3 hours. After 3 hours of MTS bio-reduction by proliferating cells, the formazan product's absorbance was measured using a 450 nm filter on an Infinite 2000 PRO microplate reader (Tecan, Mannadorf, Switzerland). Cell viability after drug exposure was evaluated using the CellTiter 96 Aqueous Non-Radioactive Cell Proliferation Assay. A549 cell lines were plated at 2×10^3 cells per well and allowed to culture for 24 hours. The cells were then treated with cisplatin, carboplatin, or a combination of cisplatin and vinorelbine for three days. The cell media was then aspirated, the cells washed with PBS, then exposed to the MTS reagent for 3 hours. After 3 hours of MTS bio-reduction by proliferating cells, the formazan product's absorbance was measured using a 450 nm filter on an Infinite 2000 PRO microplate reader.
(In general: Tetrazolium dyes change colour on reduction, which living cells bring about.)

The subject of data set [4] is NRF2 knockout A549 (2-11) tumors. The data set can be described thus: Xenograft mouse model, NRF2 knockout A549 (2-11) tumors. In kind it is in vivo, athymic nude mice. The conditions noted are these: tail vein day 0, 3, 6, 9; cisplatin 2 mg/kg; cisplatin 5 mg/kg + vinorelbine 5 mg/kg; carboplatin 25 mg/kg. The procedure: The human xenograft model was established using methodology reported previously. Kellar et al., Biomed Res. Int. […] Female athymic nude mice (Envigo, 5-6 weeks old) were used in this study. Approximately 5×10^6 cells (wild type A549 or homozygous knockout (clonal expansion 2-11)) suspended in PBS with 20% Matrigel were injected subcutaneously into right flank of each mouse. Tumor volume was measured three times a week with a digital caliper once palpable, and calculated using the formula, tumor size=ab^2/2, where ‘a’ is the larger and ‘b’ is the smaller of the two dimensions. When tumors grew up to a mean volume of around 100 mm^3, A549 tumor bearing mice or A549-2-11 tumor bearing mice were randomly divided into 7 groups (N=5 for each group) respectively and subject to dose/regimen-finding study. […] Tumor volume and body weight was closely monitored over time. After 16 days, the animals were sacrificed, with tumor removed, weighed and processed for molecular analysis. Mice were euthanized. The data were expressed as mean±SD. Student's t-test and one-way or two-way ANOVA was used to assess the significance of difference. A P value<0.05 was considered significant.
A549 xenografts were resected on day 16, snap frozen in liquid nitrogen and stored in −80° C. until usage. All immunofluorescence staining was performed as previously described. Wang et al., Investig. Opthalmology Vis. […] Briefly, tumors were embedded in Optimum Cutting Temperature (Tissue Tek, Torrance, Calif., USA) and 16-μm-thick sections were obtained with a Leica CM3050 cryostat (Leica Microsystems, Buffalo Grove, Ill., USA), and mounted on slides. Slides were fixed and incubated with blocking buffer for 1 hour at room temperature. […] Sections were washed in PBS, then mounted with SlowFade Gold antifade mountant with DAPI (Invitrogen, Carlsbad, Calif., USA). Images were obtained with a Zeiss Observer.Z1 microscope (Carl Zeiss, Inc., Gottingen, Germany). The TUNEL assay was conducted with In Situ Cell Death Detection Kit, Fluorescein (Roche, Base, Switzerland), following the manufacturer's instructions. […]

Take “CAAGATATAGATCTTGGAGTAAG (listed as DNA, chemistry not given here) [23 nucleotide length sgRNA]”: in data set [1] (first value (replicate 1)), the sequence remaining wildtype is listed as 95.8% and the total indel efficiency came to 3.4%. In data set [1] (replicate 2), the sequence remaining wildtype is recorded as 95.2% and the total indel efficiency was 3.8%.

For the compound “GATATAGATCTTGGAGTAAG (listed as DNA, chemistry not given here) [20 nucleotide length sgRNA]”, in data set [1] (first value (replicate 1)), the sequence remaining wildtype was determined as 98.4% and the total indel efficiency was 0.8%. Moreover, in data set [1] (replicate 2), the sequence remaining wildtype was found to be 96.2% and the total indel efficiency came out at 2.9%.

For “5′-UCGAUGUGACCGGGAAUAUCAGG-3′ (expressed or natural sequence) [gRNA1]”, in data set [2], the “indels by TIDE (NRF2 disruption)” value is on record as “significant amount of indels”.

With “TATAGATCTTGGAGTAAG (listed as DNA, chemistry not given here) [18 nucleotide length sgRNA]”, the sequence remaining wildtype in data set [1] (first value (replicate 1)) was 97.4%; in data set [1] (replicate 2), 96.6%. Besides, the total indel efficiency stood at 1.9% in data set [1] (first value (replicate 1)) and 2.6% in data set [1] (replicate 2).

For the compound “AAGATATAGATCTTGGAGTAAG (listed as DNA, chemistry not given here) [22 nucleotide length sgRNA]”, in data set [1] (first value (replicate 1)), the sequence remaining wildtype is 98.2% and the total indel efficiency was determined as 1.2%. Further, in data set [1] (replicate 2), the sequence remaining wildtype is 96.5% and the total indel efficiency amounted to 2.3%.

With `N.N.O=C([O-])C1(C(=O)[O-])CCC1.[Pt+2]` [carboplatin], the “chemosensitivity (MTS cell proliferation)” value in data set [3] was “the cell killing response reflected what was observed in the experiments using cisplatin”. Moreover, the “tumor growth over 16 days” value in data set [4] is “the same reduced proliferation and growth trend described above is reproduced; also recorded: significant reduction in tumor cell proliferation”.

Consider “5′-UGAUUUAGACGGUAUGCAACAGG-3′ (expressed or natural sequence) [gRNA2]”, for which the “indels by TIDE (NRF2 disruption)” value in data set [2] is “significant amount of indels”.

As for “ATAGATCTTGGAGTAAG (listed as DNA, chemistry not given here) [17 nucleotide length sgRNA]”, in data set [1] (first value (replicate 1)), the sequence remaining wildtype turned out to be 98.0% and the total indel efficiency was determined as 1.5%. For the same compound, in data set [1] (replicate 2), the sequence remaining wildtype is recorded as 97.7% and the total indel efficiency is 1.6%.
